Experimental data as given in patent US20230250066A1, “HERBICIDAL CINNOLINE DERIVATIVES” (SYNGENTA CROP PROTECTION AG, priority 2020, published 2023).

How the values were obtained:
Assay type in all cases: in vivo
[1] = system: Amaranthus retoflexus (AMARE); assay: Pre-emergence herbicidal test; conditions: 1000 g/ha, evaluated after 13 days
Setaria faberi (SETFA) [2] = assay: Pre-emergence herbicidal test; conditions: 1000 g/ha, evaluated after 13 days
[3] = system: Echinochloa crus-galli (ECHCG); assay: Pre-emergence herbicidal test; conditions: 1000 g/ha, evaluated after 13 days
[4] = system: Ipomoea hederacea (IPOHE); assay: Pre-emergence herbicidal test; conditions: 1000 g/ha, evaluated after 13 days
[5] = system: Abutilon theophrasti (ABUTH); assay: Pre-emergence herbicidal test; conditions: 1000 g/ha, evaluated after 13 days
Zea mays (ZEAMX) [6] = assay: Pre-emergence herbicidal test; conditions: 1000 g/ha, evaluated after 13 days
[7] = system: Abutilon theophrasti (ABUTH); assay: Post-emergence herbicidal test; conditions: 1000 g/ha unless otherwise stated, evaluated after 13 days
In short: (§1)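 Damage score (0–5; 5=81-100%, 1=10-20%, 0=0%) read 13 d after spraying. Spray: acetone/water 50:50 + 0.5% Tween 20, 1000 g/ha unless stated.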

[8] = system: Amaranthus retoflexus (AMARE); assay: Post-emergence herbicidal test; conditions: 1000 g/ha unless otherwise stated, evaluated after 13 days
In short: as §1

[9] = system: Echinochloa crus-galli (ECHCG); assay: Post-emergence herbicidal test; conditions: 1000 g/ha unless otherwise stated, evaluated after 13 days
In short: as §1

[10] = system: Ipomoea hederacea (IPOHE); assay: Post-emergence herbicidal test; conditions: 1000 g/ha unless otherwise stated, evaluated after 13 days
In short: as §1

Setaria faberi (SETFA) [11] = assay: Post-emergence herbicidal test; conditions: 1000 g/ha unless otherwise stated, evaluated after 13 days
In short: as §1

Zea mays (ZEAMX) [12] = assay: Post-emergence herbicidal test; conditions: 1000 g/ha unless otherwise stated, evaluated after 13 days
In short: as §1

| Structure (SMILES) | percentage damage caused to the plant, five-point scale, AMARE [1] | percentage damage caused to the plant, five-point scale, SETFA (Setaria faberi (SETFA) [2]) | percentage damage caused to the plant, five-point scale, ECHCG [3] | percentage damage caused to the plant, five-point scale, IPOHE [4] | percentage damage caused to the plant, five-point scale, ABUTH [5] | percentage damage caused to the plant, five-point scale, ZEAMX (Zea mays (ZEAMX) [6]) | percentage damage caused to the plant, ABUTH (five-point scale) [7] | percentage damage caused to the plant, AMARE (five-point scale) [8] | percentage damage caused to the plant, ECHCG (five-point scale) [9] | percentage damage caused to the plant, IPOHE (five-point scale) [10] | percentage damage caused to the plant, SETFA (five-point scale) (Setaria faberi (SETFA) [11]) | percentage damage caused to the plant, ZEAMX (five-point scale) (Zea mays (ZEAMX) [12]) |
| --- | --- | --- | --- | --- | --- | --- | --- | --- | --- | --- | --- | --- |
| CCOC(=O)c1nn(-c2ccc(OC(F)(F)F)cc2)c2cc(CC(C)C)cc(S(C)(=O)=O)c2c1=O [Compound P46, ethyl 7-isobutyl-5-methysulfonyl-4-oxo-1-[4-(trifluoromethoxy)phenyl]cinnoline-3-carboxylate] | 0 (0=0%) | 0 (0=0%) | 0 (0=0%) | 0 (0=0%) | 1 (1=10-20%) | 2 (2=21-40%) | 1 (1=10-20%) | 0 (0=0%) | 1 (1=10-20%) | 1 (1=10-20%) | 1 (1=10-20%) | 1 (1=10-20%) |
| CCOC(=O)c1nn(-c2ccc(OC(F)(F)F)cc2)c2ccc(C#N)c(S(C)(=O)=O)c2c1=O [Compound P47, ethyl 6-cyano-5-methylsulfonyl-4-oxo-1-[4-(trifluoromethoxy)phenyl]cinnoline-3-carboxylate] | 0 (0=0%) | 0 (0=0%) | 0 (0=0%) | 0 (0=0%) | 0 (0=0%) | 0 (0=0%) | 0 (0=0%) | 0 (0=0%) | 1 (1=10-20%) | 0 (0=0%) | 1 (1=10-20%) | 0 (0=0%) |
| CCOC(=O)c1nn(-c2ccc(OC(F)(F)F)cc2)c2cc(C#N)cc(S(C)(=O)=O)c2c1=O [Compound P48, ethyl 7-cyano-5-methylsulfonyl-4-oxo-1-[4-(trifluoromethoxy)phenyl]cinnoline-3-carboxylate] | 0 (0=0%) | 0 (0=0%) | 0 (0=0%) | 0 (0=0%) | 0 (0=0%) | 0 (0=0%) | 0 (0=0%) | 0 (0=0%) | 0 (0=0%) | 0 (0=0%) | 0 (0=0%) | 0 (0=0%) |
| CCOC(=O)c1nn(-c2ccc(OC(F)(F)F)cc2)c2ccc(OC)c(S(C)(=O)=O)c2c1=O [Compound P49, ethyl 6-methoxy-5-methylsulfonyl-4-oxo-1-[4-(trifluoromethoxy)phenyl]cinnoline-3-carboxylate] | 0 (0=0%) | 0 (0=0%) | 0 (0=0%) | 0 (0=0%) | 0 (0=0%) | 0 (0=0%) | 0 (0=0%) | 0 (0=0%) | 1 (1=10-20%) | 1 (1=10-20%) | 1 (1=10-20%) | 0 (0=0%) |
| CCOC(=O)c1nn(-c2ccc(OC(F)(F)F)cc2)c2ccc(F)c(S(C)(=O)=O)c2c1=O [Compound P51, ethyl 6-fluoro-5-methylsulfonyl-4-oxo-1-[4-(trifluoromethoxy)phenyl]cinnoline-3-carboxylate] | 0 (0=0%) | 0 (0=0%) | 0 (0=0%) | 0 (0=0%) | 0 (0=0%) | 0 (0=0%) | 0 (0=0%) | 0 (0=0%) | 0 (0=0%) | 0 (0=0%) | 0 (0=0%) | 0 (0=0%) |
| CCOC(=O)c1nn(-c2ccc(OC(F)(F)F)cc2)c2cc(F)cc(S(C)(=O)=O)c2c1=O [Compound P52, ethyl 7-fluoro-5-methylsulfonyl-4-oxo-1-[4-(trifluoromethoxy)phenyl]cinnoline-3-carboxylate] | 1 (1=10-20%) | 4 (4=61-80%) | 3 (3=41-60%) | 0 (0=0%) | 1 (1=10-20%) | 0 (0=0%) | 1 (1=10-20%) | 1 (1=10-20%) | 2 (2=21-40%) | 0 (0=0%) | 2 (2=21-40%) | 1 (1=10-20%) |
| CCOC(=O)c1nn(-c2ccc(OC(F)(F)F)cc2)c2cc(F)cc(SC)c2c1=O [Compound P54, ethyl 7-fluoro-5-methylsulfanyl-4-oxo-1-[4-(trifluoromethoxy)phenyl]cinnoline-3-carboxylate] | 1 (1=10-20%) | 2 (2=21-40%) | 2 (2=21-40%) | 0 (0=0%) | 1 (1=10-20%) | 0 (0=0%) | 1 (1=10-20%) | 2 (2=21-40%) | 0 (0=0%) | 1 (1=10-20%) | 0 (0=0%) | 1 (1=10-20%) |
| CCOC(=O)c1nn(-c2ccc(OC(F)(F)F)cc2)c2cc(C#N)cc(SC)c2c1=O [Compound P55, ethyl 7-cyano-5-methylsulfanyl-4-oxo-1-[4-(trifluoromethoxy)phenyl]cinnoline-3-carboxylate] | 0 (0=0%) | 0 (0=0%) | 0 (0=0%) | 0 (0=0%) | 1 (1=10-20%) | 0 (0=0%) | 0 (0=0%) | 0 (0=0%) | 0 (0=0%) | 0 (0=0%) | 0 (0=0%) | 0 (0=0%) |
| COC(=O)c1nn(-c2ccc(OC(F)(F)F)cc2)c2cc(OC)cc(SC)c2c1=O [Compound P56, methyl 7-methoxy-5-methylsulfanyl-4-oxo-1-[4-(trifluoromethoxy)phenyl]cinnoline-3-carboxylate] | 0 (0=0%) | 0 (0=0%) | 0 (0=0%) | 0 (0=0%) | 0 (0=0%) | 0 (0=0%) | 0 (0=0%) | 1 (1=10-20%) | 0 (0=0%) | 0 (0=0%) | 0 (0=0%) | 0 (0=0%) |
